Results: patent US20220306695A1, “COMPSTATIN ANALOGUES AND THEIR MEDICAL USES” (priority 2019, published 2022)
Like-named read-outs stand apart in the source and are kept apart here. Starred links: 1 amine or outer side, 2 acyl side, 3 side chain; linkers in the order of their positions; H or OH if unused. Positions of bridges follow the written chain, without caps; N, C: chain ends. Non-standard residues stand in square brackets, D forms with d. Residues, ends and D or L forms follow the SMILES beside them. Groups on a side chain read outwards from the residue. *: point of attachment. C20 diacid = O=C(O)CCCCCCCCCCCCCCCCCCC(=O)*; Trp(1-Me) = Cn1cc(C[C@H](N)C(=O)O)c2ccccc21; Abu(4-yl) = O=C([C@H](CC[*:3])N[*:1])[*:2]; C18 diacid = O=C(O)CCCCCCCCCCCCCCCCC(=O)*; γGlu = O=C(O)[C@H](CCC(=O)[*:2])N[*:1]; NMeI = CC[C@H](C)[C@H](NC)C(=O)O; AEEA = NCCOCCOCC(=O)O; Sar = CNCC(=O)O

Key:
[1] = test system: classical complement pathway; assay: In vitro haemolysis assay (inhibition of classical complement pathway); format: cell-based, human
Outline: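 Serially diluted compound (9 points) was preincubated 15 min at room temperature with diluted human serum, titrated per batch to give 70-90% maximal haemolysis, in Tris/casein buffer pH 7.4 with Mg2+/Ca2+. Antibody-sensitized sheep erythrocytes were then added for 30 min at 37° C, and the reaction was stopped with EDTA. Haemolysis was read at A405, with IC50 from 4PL fit.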

Human C3 = biological target: T1, Human C3 (Homo sapiens, UniProt P01024); assay: Affinity measurement by surface plasmon resonance (SPR) with immobilized C3; format: binding; conditions: Table 7; immobilized C3, 25° C., pH 7.4
T1 construct: purchased Complement tech A1 13c (so in the source)
Procedure: Surface plasmon resonance (SPR) was used to characterize peptides with respect to their binding affinity (Kd) for C3. Human C3 (Complement tech cat #A1 13c) was immobilised on individual flow cells of CM5 sensor chips (GE Healthcare) using standard amine coupling to a density of approximately 3000 resonance units (RU) in a buffer consisting of 10 mM phosphate pH 7.4, 150 mM NaCl, 0.05% Tween20. For interaction experiments a multi-cycle experiment approach was used and performed using either a Biacore™ T200 or Biacore™ X100 instrument (GE Healthcare) at 25° C. Peptides were injected in increasing concentration series (5-8 different concentrations) for 60-120 s at a flow rate of 30 μL/min in a buffer consisting of 10 mM Tris buffer at pH 7.4, with 150 mM NaCl and 0.05% Tween20. This was followed by a dissociation period for up to 10 min. […] Sensorgrams were double-referenced (reference surface, blanks) prior to analysis of the kinetic profiles by globally fitting data to a 1:1 Langmuir binding model to obtain association and dissociation rates for calculation of the equilibrium dissociation constant Kd. Each peptide was tested at in at least 2 independent experiments.

[2] = Table 3, human serum, sensitized sheep red blood cells, read-out: IC50[nM], in vitro analysis of inhibition of hemolysis
[3] = Table 4, valine 3 versus isoleucine 3 pairs, read-out: CP hemolysis IC50

Structure (SMILES) | IC50 [1, 2] [nM] | IC50 [1, 3] [nM] | IC50 ([1]; Table 5, different residues at position 3 of Ac-IC(1)XWQDWGEHRC(1)T-NH2, read-out: IC50, CP hemolysis) [nM] | Kd (Human C3) [nM]
CC[C@H](C)[C@H](NC(C)=O)C(=O)N[C@H]1CSSC[C@@H](C(=O)N[C@H](C(N)=O)[C@@H](C)O)NC(=O)[C@H](CCCNC(=N)N)NC(=O)[C@H](Cc2c[nH]cn2)NC(=O)[C@H](CCC(=O)O)NC(=O)CNC(=O)[C@H](Cc2c[nH]c3ccccc23)NC(=O)[C@H](CC(=O)O)NC(=O)[C@H](CCC(N)=O)NC(=O)[C@H](Cc2c[nH]c3ccccc23)NC(=O)[C@H]([C@@H](C)CC)NC1=O [Compound 2] (Ac-ICIWQDWGEHRCT-NH2; disulfide 2-12) | < 100 | 94 | < 100 | 16
CC[C@H](C)[C@H](NC(C)=O)C(=O)N[C@H]1CSSC[C@@H](C(=O)N[C@H](C(N)=O)[C@@H](C)O)NC(=O)[C@H](CCCNC(=N)N)NC(=O)[C@H](Cc2c[nH]cn2)NC(=O)[C@H](CCC(=O)O)NC(=O)CNC(=O)[C@H](Cc2c[nH]c3ccccc23)NC(=O)[C@H](CC(=O)O)NC(=O)[C@H](CCC(N)=O)NC(=O)[C@H](Cc2cn(C)c3ccccc23)NC(=O)[C@H]([C@@H](C)CC)NC1=O [Compound 4] (Ac-ICI[Trp(1-Me)]QDWGEHRCT-NH2; disulfide 2-12) | < 100 | – | – | 1.5
CC[C@H](C)[C@H](NC(C)=O)C(=O)N[C@H]1CSSC[C@@H](C(=O)N[C@@H](CO)C(N)=O)NC(=O)[C@H](CCCNC(=N)N)NC(=O)[C@H](Cc2c[nH]cn2)NC(=O)[C@H](CCC(=O)O)NC(=O)CNC(=O)[C@H](Cc2c[nH]c3ccccc23)NC(=O)[C@H](CC(=O)O)NC(=O)[C@H](CCC(N)=O)NC(=O)[C@H](Cc2c[nH]c3ccccc23)NC(=O)[C@H]([C@@H](C)CC)NC1=O [Compound 21] (Ac-ICIWQDWGEHRCS-NH2; disulfide 2-12) | < 100 | 77 | – | 16
CC[C@H](C)[C@H](NC(=O)[C@H](N)Cc1ccc(O)cc1)C(=O)N[C@H]1CSSC[C@@H](C(=O)N(C)[C@H](C(N)=O)[C@@H](C)CC)NC(=O)[C@H](CCCNC(=N)N)NC(=O)[C@H](Cc2c[nH]cn2)NC(=O)[C@H](C)NC(=O)CN(C)C(=O)[C@H](Cc2c[nH]c3ccccc23)NC(=O)[C@H](CC(=O)O)NC(=O)[C@H](CCC(N)=O)NC(=O)[C@H](Cc2cn(C)c3ccccc23)NC(=O)[C@H]([C@@H](C)CC)NC1=O [Compound 48, H-{d}Y1C(1)I[1-Me-Trp]QDW[Sar]AHRC(1)[N-Me-Ile]-NH2] (H-[dY]ICI[Trp(1-Me)]QDW[Sar]AHRC[NMeI]-NH2; disulfide 3-13) | < 100 | – | – | 0.12
CC[C@H](C)[C@@H]1NC(=O)[C@@H](NC(=O)[C@H](Cc2ccccc2)NC(=O)[C@H](CCC(=O)O)NC(=O)[C@H](CO)NC(C)=O)CSSC[C@@H](C(=O)N(C)CC(=O)N[C@@H](CCC(=O)O)C(=O)N[C@@H](C)C(N)=O)NC(=O)[C@H](CCCNC(=N)N)NC(=O)[C@H](Cc2c[nH]cn2)NC(=O)[C@H](CCC(=O)O)NC(=O)CNC(=O)[C@H](Cc2c[nH]c3ccccc23)NC(=O)[C@H](CC(=O)O)NC(=O)[C@H](CCC(N)=O)NC(=O)[C@H](Cc2cn(C)c3ccccc23)NC1=O [Compound 75] (Ac-SEFCI[Trp(1-Me)]QDWGEHRC[Sar]EA-NH2; disulfide 4-14) | < 100 | – | – | 1.5
CC[C@H](C)[C@@H]1NC(=O)[C@@H](NC(=O)CN(C)C(=O)[C@H](CCC(=O)O)NC(=O)[C@H](CO)NC(C)=O)CSSC[C@@H](C(=O)N[C@H](C(=O)N[C@@H](CCC(=O)O)C(=O)N[C@@H](C)C(N)=O)[C@@H](C)O)NC(=O)[C@H](CCCNC(=N)N)NC(=O)[C@H](Cc2c[nH]cn2)NC(=O)[C@H](CCC(=O)O)NC(=O)CNC(=O)[C@H](Cc2c[nH]c3ccccc23)NC(=O)[C@H](CC(=O)O)NC(=O)[C@H](CCC(N)=O)NC(=O)[C@H](Cc2cn(C)c3ccccc23)NC1=O [Compound 82] (Ac-SE[Sar]CI[Trp(1-Me)]QDWGEHRCTEA-NH2; disulfide 4-14) | < 100 | – | – | 5.4
CC[C@H](C)[C@@H]1NC(=O)[C@@H](NC(=O)[C@H](Cc2ccccc2)NC(=O)[C@H](CCC(=O)O)NC(=O)[C@H](CO)NC(C)=O)CSSC[C@@H](C(=O)N(C)CC(=O)N[C@@H](CCC(=O)O)C(=O)NCC(=O)N[C@@H](C)C(=O)N[C@@H](CCCCNC(=O)COCCOCCNC(=O)CC[C@H](NC(=O)COCCOCCNC(=O)CNC(=O)CC[C@H](NC(=O)CCCCCCCCCCCCCCCCC(=O)O)C(=O)O)C(=O)O)C(N)=O)NC(=O)[C@H](CCCNC(=N)N)NC(=O)[C@H](Cc2c[nH]cn2)NC(=O)[C@H](CCC(=O)O)NC(=O)CNC(=O)[C@H](Cc2c[nH]c3ccccc23)NC(=O)[C@H](CCC(=O)O)NC(=O)[C@H](CCC(N)=O)NC(=O)[C@H](Cc2cn(C)c3ccccc23)NC1=O [Compound 120] (Ac-SEFCI[Trp(1-Me)]QEWGEHRC[Sar]EGAK([AEEA-γGlu-AEEA-Gly-γGlu-C18 diacid])-NH2; disulfide 4-14) | < 250 | – | – | 28
CC[C@H](C)[C@@H]1NC(=O)[C@@H](NC(=O)[C@H](Cc2ccc(O)cc2)NC(=O)[C@H](CCC(=O)O)NC(=O)[C@H](CO)NC(C)=O)CSSC[C@@H](C(=O)N(C)CC(=O)N[C@@H](CCC(=O)O)C(=O)N[C@@H](CCCCN)C(=O)N[C@@H](CCC(=O)N[C@@H](C)C(=O)N[C@@H](CCCCNC(=O)COCCOCCNC(=O)CC[C@H](NC(=O)COCCOCCNC(=O)CNC(=O)CC[C@H](NC(=O)CCCCCCCCCCCCCCCCC(=O)O)C(=O)O)C(=O)O)C(N)=O)C(=O)O)NC(=O)[C@H](CCCNC(=N)N)NC(=O)[C@H](Cc2c[nH]cn2)NC(=O)[C@H](CCC(=O)O)NC(=O)CN(C)C(=O)[C@H](Cc2c[nH]c3ccccc23)NC(=O)[C@H](CCC(=O)O)NC(=O)[C@H](CCC(N)=O)NC(=O)[C@H](Cc2cn(C)c3ccccc23)NC1=O [Compound 121, Ac-SEYC(1)I[1-Me-Trp]QEW[Sar]EHRC(1)[Sar]K[γGlu]A-K([17-carboxy-heptadecanoyl][γGlu]G[Peg3][γGlu][Peg3])-NH2] (Ac-SEYCI[Trp(1-Me)]QEW[Sar]EHRC[Sar]EK[γGlu]AK([AEEA-γGlu-AEEA-Gly-γGlu-C18 diacid])-NH2; disulfide 4-14) | < 250 | – | – | 30
CC[C@H](C)[C@@H]1NC(=O)[C@@H](NC(=O)[C@H](Cc2ccccc2)NC(=O)[C@H](CCC(=O)O)NC(=O)[C@H](CO)NC(C)=O)CSSC[C@@H](C(=O)N(C)CC(=O)N[C@@H](CCC(=O)O)C(=O)NCC(=O)N[C@@H](CCC(=O)O)C(=O)NCCOCCOCC(=O)NCCOCCOCC(=O)N[C@@H](CCCCNC(=O)CC[C@H](NC(=O)CNC(=O)CC[C@H](NC(=O)CCCCCCCCCCCCCCCCCCC(=O)O)C(=O)O)C(=O)O)C(N)=O)NC(=O)[C@H](CCCNC(=N)N)NC(=O)[C@H](Cc2c[nH]cn2)NC(=O)[C@H](CCC(=O)O)NC(=O)CNC(=O)[C@H](Cc2c[nH]c3ccccc23)NC(=O)[C@H](CC(=O)O)NC(=O)[C@H](CCC(N)=O)NC(=O)[C@H](Cc2cn(C)c3ccccc23)NC1=O [Compound 128] (Ac-SEFCI[Trp(1-Me)]QDWGEHRC[Sar]EGE[AEEA][AEEA]K([γGlu-Gly-γGlu-C20 diacid])-NH2; disulfide 4-14) | < 100 | – | – | 6.5
CC[C@H](C)[C@@H]1NC(=O)[C@@H](NC(=O)[C@H](Cc2ccccc2)NC(=O)[C@H](CCC(=O)O)NC(=O)[C@H](CO)NC(C)=O)CSSC[C@@H](C(=O)N(C)CC(=O)N[C@@H](CCC(=O)O)C(=O)NCCOCCOCC(=O)NCCOCCOCC(=O)N[C@@H](CCCCNC(=O)CC[C@H](NC(=O)CNC(=O)CC[C@H](NC(=O)CCCCCCCCCCCCCCCCC(=O)O)C(=O)O)C(=O)O)C(N)=O)NC(=O)[C@H](CCCNC(=N)N)NC(=O)[C@H](Cc2c[nH]cn2)NC(=O)[C@H](CCC(=O)O)NC(=O)CN(C)C(=O)[C@H](Cc2c[nH]c3ccccc23)NC(=O)[C@H](CC(=O)O)NC(=O)[C@H](CCC(N)=O)NC(=O)[C@H](Cc2cn(C)c3ccccc23)NC1=O [Compound 144, Ac-SEFC(1)I[1-Me-Trp]QDW[Sar]EHRC(1)[Sar]E[Peg3][Peg3]-K([17-carboxy-heptadecanoyl][γGlu]G[γGlu])-NH2] (Ac-SEFCI[Trp(1-Me)]QDW[Sar]EHRC[Sar]E[AEEA][AEEA]K([γGlu-Gly-γGlu-C18 diacid])-NH2; disulfide 4-14) | < 100 | – | – | 1.5
CC[C@H](C)[C@@H]1NC(=O)[C@@H](NC(=O)[C@H](Cc2ccccc2)NC(=O)[C@H](CCC(=O)O)NC(=O)[C@H](CO)NC(C)=O)CSCC[C@@H](C(=O)N[C@H](C(=O)NCC(=O)N[C@@H](C)C(=O)N[C@@H](CCC(=O)O)C(=O)N[C@@H](CO)C(N)=O)[C@@H](C)O)NC(=O)[C@H](CCCNC(=N)N)NC(=O)[C@H](Cc2c[nH]cn2)NC(=O)[C@H](CCC(=O)O)NC(=O)CNC(=O)[C@H](Cc2c[nH]c3ccccc23)NC(=O)[C@H](CC(=O)O)NC(=O)[C@H](CCC(N)=O)NC(=O)[C@H](Cc2cn(C)c3ccccc23)NC1=O [Compound 151, Ac-SEFA(1)I[1-Me-Trp]QDWGEHRhC(1)TGAES-NH2] (Ac-SEFCI[Trp(1-Me)]QDWGEHR[Abu(4-yl)]TGAES-NH2; thioether 4-14) | < 100 | – | – | 1.4
